Experimental data as given in patent publication US20210061861A1, “D-PEPTIDIC COMPOUNDS FOR VEGF” (Reflexion Pharmaceuticals, Inc., priority 2019, published 2021).
pIC50, pKd: −log10 of the molar value. Where “and” joins values, the source holds several entries; their conditions need not be identical. Equal values may be shown once. Bridges are numbered along the chain shown (N, C = ends). Where no end group is shown, it is not given here. [ ]: non-standard residue; d: D form.

How the values were obtained:
[1] = tested on: VEGF-A signaling through VEGFR2; assay: VEGFR2 luciferase reporter cell signaling assay (KDR/NFAT-RE HEK293); assay type: cell-based; settings: 150 pM VEGF-A; read-out: IC50, inhibition of VEGFR2 signaling (luciferase)
Description: Here VEGF-A activates VEGFR2 signaling in 293 cells resulting in luciferase expression as a functional readout. Inhibition of VEGF-A signaling in this system results in a loss of luciferase signal.
Measurement of VEGF cellular signaling was performed using the VEGF Bioassay (Promega). Briefly, HEK293 cells are engineered to express VEGFR-2 coupled to a luciferase response element (KDR/NFAT-RE HEK293). VEGF signaling through VEGFR-2 mediates expression of luciferase which can be quantified using bioluminescence. […] Following incubation Bio-Glo is added to wells according to the manufacturer's protocol and relative luminescence units (RLUs) were measured on a PerkinElmer 2300 Enspire Multimode plate reader. Data plotted are mean±standard deviation of triplicate measurements. IC50 values were derived from 3-parameter fits using Prism (GraphPad) and error reported are derived from fits.

VEGF-A = target: T1, VEGF-A (Homo sapiens, UniProt P15692); assay: SPR binding of D-peptidic compounds to L-VEGF-A; design: Biotinylated VEGF-A(8-109) was immobilized on a biotin CAPture chip; settings: for affinity improvement over 11055: SPR KD ratio versus parent 11055
T1 sequence (P15692 214-315): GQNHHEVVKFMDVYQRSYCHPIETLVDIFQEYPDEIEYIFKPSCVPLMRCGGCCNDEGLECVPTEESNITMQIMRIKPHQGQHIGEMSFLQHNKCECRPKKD
Description: Surface plasmon resonance (SPR) binding measurements were carried out on a Biacore S200 (GE). Biotinylated VEGF-A(8-109) was immobilized on a biotin CAPture chip (GE) and serial dilutions of D-proteins were flowed over the chip at 30 μL/min in running buffer (10 mM Hepes, pH 7.4, 150 mM NaCl, 0.05% P20). […] All measurements were carried out at 25° C. SPR data are representative of multiple independent titrations. Kinetic fits were performed using Biacore software using a global single site binding model.

[2] = target: T2, VEGF-A121 binding to VEGFR1-Fc (Homo sapiens, UniProt P15692); assay: non-equilibrium VEGF-A blocking ELISA on VEGFR1-Fc; assay type: biochemical; settings: for improvement of IC50 over 11055: non-equilibrium blocking ELISA
T2 construct: purchased Acro Biosystems (VEGF-A121); R&D Systems (VEGFR1-Fc) VE1-H82E7; 3516-FL-050
T2 sequence (P15692 27-147 isoform P15692-9 limits assumed): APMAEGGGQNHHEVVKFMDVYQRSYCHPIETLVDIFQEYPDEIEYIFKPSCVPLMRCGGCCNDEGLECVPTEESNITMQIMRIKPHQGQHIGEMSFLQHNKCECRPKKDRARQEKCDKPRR

[3] = target: T2, VEGF-A121 binding to VEGFR1-Fc; assay: equilibrium binding VEGF-A121/VEGFR1 blocking ELISA; assay type: biochemical; settings: IC50, blocking VEGF-A binding to VEGFR1-Fc, 150 pM VEGF-A, overnight incubation
Description: Biotinylated human VEGF-A121 (isoform 121) was purchased from Acro Biosystems (cat #VE1-H82E7). VEGFR-1-Fc was purchased from R&D Systems (cat #3516-FL-050).
The following day, coated wells were blocked with Super Block (Rockland) for 2 hr with shaking at room temp.
Data plotted are mean±standard deviation of triplicate measurements. IC50 values were derived from 3-parameter fits using Prism (GraphPad) and the error reported is derived from fits.

[4] = tested on: VEGF-A165-induced vascular leakage; assay: rabbit eye model of wet AMD, fluorescein angiography; assay type: in vivo; settings: single intravitreal dose 1.0 mg
Description: FIG. 44A-44B show in vivo activity of D-protein RFX-980869 in a rabbit eye model of wet AMD. (FIG. 44A) Representative fluorescein angiography (FA) images depicting the extent of VEGF-A165-induced vascular leakage at Day 5 and Day 26 post administration of respective drugs (control=no drug treatment). (FIG. 44B) Plots of individual FA scores at Day 5 and Day 26. Scoring is as follows: 0=major vessels straight with some tortuosity of small vessels and no dilation, 1=increased tortuosity of major vessels and some dilation, 2=leakage between major vessels and significant dilation, 3=leakage between major and minor vessels and minor vessels still visible, 4=leakage between major and minor vessels and minor vessels poorly visible or not visible. N=5 rabbits per group (10 eyes). All data is plotted as mean±SEM. (****p<0.0001, Mann-whitney test)
In the rabbit eye model for wet AMD, intravitreal challenge with exogenous VEGF-A165 induces vascular leakage of the retina that can be monitored using fluorescein angiography (FA). VEGF-A blockade can prevent the diffuse leakage of fluorescein into the eye, which serves as a measure of efficacy. […] After a single intravitreal administration of RFX-980869 at 0.25 mg or 1.0 mg per eye, rabbits were challenged with exogenous VEGF-A twice over a 1-month period (Day 2 and Day 23) and their eyes were examined three days later (Day 5 and Day 26). […]

[5] = subcutaneous immunization in BALB/c mice; settings: Day 42 serum; 25 μg s.c. Days 0, 21, 35, adjuvant on Day 0
Description: Female BALB/c mice (6-8 weeks) were randomized into immunization groups on Day 0 (n=5 per group) Immunizations were performed on Days 0, 21, 35 by subcutaneous injection of 25 μg of antigen. Antigens were emulsified in adjuvant (TiterMax) for injection on Day 0 and administered in PBS for Days 21 and 35. Serum pre-bleeds were performed on Days 0, 21, 35 prior to immunizations. Final bleeds for max titer response were taken on Day 42.

[6] = anti-drug antibodies in serum of the MC38 tumor study; assay type: in vivo, mouse; settings: Day 22 serum, low and high dose groups
Description: FIG. 45A-45D show tumor growth inhibition activity of RFX-980869 and lack of immunogenicity. […] N=6 mice per group. (FIG. 45B) Day 15 tumor volumes (*p<0.05, Mann-whitney test) (FIG. 45C) Anti-drug-antibodies from MC38 tumor study measured in Day 22 serum samples using an ELISA for antigen-specific serum IgG. (FIG. 45D) Anti-drug-antibody titers measured from Day 42 serum after subcutaneous immunization of corresponding drugs in BALB/c mice. N=5 mice per group. All data is plotted as mean±SEM.

MC38 colon cancer tumors = assay: MC38 syngeneic tumor model in C57BL6 mice; assay type: in vivo, mouse
Description: To assess the tumor growth inhibition potential of RFX-980869, the cross-reactivity of RFX-980869 with mouse VEGF-A (data not shown) was studied and used the syngeneic MC38 mouse tumor model. MC38 colon cancer tumors were established in C57BL6 mice transgenic for human PD-1, and reached 82 mm3 prior to initiation of treatment.
Female C57BL6 mice transgenic for human PD-1 (12-13 weeks) were purchased from Beijing Biocytogen Co.). […] MC38 tumor cells (1×10^6) were implanted subcutaneously in the right front flank and tumors were allowed to establish until the mean volume was 82 mm^3. Mice were randomized into treatment groups (N=6 per group) on Day 0 when treatment initiation began. […] All data is plotted as mean ±SEM.

D-VEGF-A = assay: competitive phage ELISA, D-VEGF-A binding of L-peptidic compounds; settings: D-VEGF-A binding activity
Description: Compounds of interest were assessed for VEGF-A binding in a competitive phage ELISA assay.

Description for HUVEC cell proliferation: Here, HUVEC cell proliferation is increased in the presence of recombinant VEGF-A and antagonist compounds that block VEGF-A signaling reduce HUVEC cell proliferation.

## [dY][dH][dI][dQ][dW][dV][dC][dK][dN][dA][dK][dE][dD][dA][dI][dA][dE][dL][dK][dK][dA]G[dI][dT][dE][dP][dH][dV][dI][dS][dF][dI][dN][dH][dA][dP][dN][dC][dS][dH][dV][dN]G[dL][dK][dN][dA][dI][dL][dK][dA][dH][dA]-NH2 (disulfide 7-38) [Compound 979110, yhiqwvcknakedaiaelkkaGitephvisfinhapncshvnGlknailkaha]
[1]
  pIC50: 8.21
VEGF-A
  affinity improvement over 11055: ~10 fold
VEGF-A; listed as RFX-979110
  affinity improvement over 11055: 19 fold
VEGF-A; VEGF-A binding affinity (KD) measured by SPR, running text and figure legends, L-VEGF-A
  pKd: 8.44 and 8.64
[2]
  pIC50: 8.46
  improvement of IC50 over 11055: 14.8 fold
[2]; listed as RFX-979110
  improvement of IC50 over 11055: 15 fold
HUVEC cell proliferation; HUVEC proliferation
  fold weaker than bevacizumab (Avastin): 185 fold
  potency improvement over 11055: 4 fold
HUVEC cell proliferation; read-out: IC50 for inhibition of cell proliferation in response to VEGF signaling, HUVEC, recombinant VEGF-A
  pIC50: 6.88
[3]
  pIC50: 8.15 and 8.12

## aflibercept
[4]
  vascular leakage at Day 26: completely blocked vascular leakage

## nivolumab
[5]
  anti-drug-antibody IgG titer after immunization: strong IgG titers
[6]
  anti-drug-antibodies, antigen-specific serum IgG titer: saturating levels of IgG titer
MC38 colon cancer tumors; 1 mg/kg biweekly, i.p.
  tumor growth versus vehicle control group: failed to show tumor growth inhibition
MC38 colon cancer tumors; FIG. 45A, over both dose levels
  MC38 tumor growth curves: dose-dependent efficacy
MC38 colon cancer tumors; day 15, 3 mg/kg biweekly
  tumor growth inhibition: 48%

## tidqwllknakedaiaelkkcGitephvisfinhapyvshvnGlkanilkaha [Compound 1.1.1]
D-VEGF-A
  pIC50: 7.47 to 7.70
